Data reported in paper PMC10022191, “Safety, tolerability, pharmacokinetics, and antiviral activity of the novel core protein allosteric modulator ZM-H1505R (Canocapavir) in chronic hepatitis B patients: a randomized multiple-dose escalation trial” (BMC Medicine, 2023).

Experiment: phase 1b trial: adverse reactions and tolerability in CHB patients
Assay type: in vivo, human
Conditions: 28 days
Procedure: This was a randomized, open-label, placebo-controlled, phase 1b study (Clinical Trial Registration Number: NCT05470829; Chinese Clinical Trial Registration Number: CTR20210686), which was conducted at the Phase I Clinical Research Center, The First Hospital of Jilin University (Jilin, China), during the period from May to November of 2021. In order to minimize the safety risk of Canocapavir, an adaptive ascending dosing strategy was adopted for Canocapavir treatment in this study. The second and third assigned doses were initiated only after the safety data from the previous dose was reviewed and determined to be safe by the Principal Investigator and the Sponsor on day 8 postdosing (post drug administration days). Canocapavir was administered at the Clinical Research Center on days 1–8 and day 28 and at home on days 9–27 under the same conditions (fixed administration time and fasting condition). Patients were required to visit the facility for follow-up on days 15, 22, 27, 43 ± 1, and 57 ± 2 postdosing. The study protocol and informed consent forms were prepared according to the principles of the Declaration of Helsinki. The study protocol was approved by the Institutional Review Board of the First Hospital of Jilin University (approval number: 20Y201-006). All recruited patients provided written informed consent before participating in any study-related procedures.
A total of 30 CHB patients were recruited in this study and were randomly assigned into three cohorts (N = 10, each). In these three cohorts, the patients (in a ratio of 4:1) received 50, 100, or 200 mg of Canocapavir or placebo once a day for 28 consecutive days under fasting conditions, followed by a 28-day follow-up (Fig. 1). The patients, care providers, and those assessing outcomes were blinded during the study. This random process was completed in an electronic data capture system, and the details are shown in Additional file 1.
To examine possible adverse events (AEs) and adverse reactions (an adverse event is definitely, probably, or possibly related to the drug) in this study, the recruited patients underwent regular clinical laboratory testing, 12-lead electrocardiograms, examination of vital signs, abdominal ultrasound, and regular physical examinations, using the baseline data as a control. The severity of AEs and laboratory abnormalities were graded according to the Common Terminology Criteria for Adverse Events (CTCAE), version 5.0, which defines toxicity criteria. The AEs were coded using the Medical Dictionary for Regulatory Activities, version 24.1 (McLean, VA, USA).

## O=C1CO[C@H](c2cn(-c3ccc(Br)cc3)nc2-c2ccc(F)cc2)N1CCc1ccc2[nH]c(=O)[nH]c2c1 [Canocapavir]
50 mg q.d.
  Adverse reactions, grade I, number of subjects: 2 n
  Adverse reactions, grade I, percent of subjects: 25.00%
  Adverse reactions, grade II, number of subjects: 0 n
  Adverse reactions, grade II, percent of subjects: 0%
  Adverse reactions, grade III, number of subjects: 1 n
  Adverse reactions, grade III, percent of subjects: 12.50%
  Adverse reactions, total (all grades), number of subjects: 3 n
  Adverse reactions, total (all grades), percent of subjects: 37.5%
  Decreased neutrophil count, cases: 1 case
  Decreased neutrophil count, grade II, number of subjects: 0 n
  Decreased neutrophil count, grade II, percent of subjects: 0%
  Decreased neutrophil count, grade III, percent of subjects: 12.50%
  Decreased neutrophil count, number of subjects (%): 1 (12.5) n (%)
  Decreased platelet count, cases: 0 case
  Decreased platelet count, grade I, number of subjects: 0 n
  Decreased platelet count, grade I, percent of subjects: 0%
  Decreased platelet count, number of subjects (%): 0 (0) n (%)
  Decreased serum phosphorus, cases: 0 case
  Decreased serum phosphorus, grade I, number of subjects: 0 n
  Decreased serum phosphorus, grade I, percent of subjects: 0%
  Decreased serum phosphorus, number of subjects (%): 0 (0) n (%)
  Decreased white blood cell count, cases: 1 case
  Decreased white blood cell count, grade II, percent of subjects: 12.50%
  Decreased white blood cell count, number of subjects (%): 1 (12.5) n (%)
  Hypertriglyceridemia, cases: 0 case
  Hypertriglyceridemia, grade III, number of subjects: 0 n
  Hypertriglyceridemia, grade III, percent of subjects: 0%
  Hypertriglyceridemia, number of subjects (%): 0 (0) n (%)
  Increased alanine aminotransferase, cases: 2 case
  Increased alanine aminotransferase, grade I, number of subjects: 2 n
  Increased alanine aminotransferase, grade I, percent of subjects: 25.00%
  Increased alanine aminotransferase, grade II, number of subjects: 0 n
  Increased alanine aminotransferase, grade II, percent of subjects: 0%
  Increased alanine aminotransferase, number of subjects (%): 2 (25) n (%)
  Increased aspartate aminotransferase, cases: 1 case
  Increased aspartate aminotransferase, grade I, number of subjects: 1 n
  Increased aspartate aminotransferase, grade I, percent of subjects: 12.50%
  Increased aspartate aminotransferase, grade II, number of subjects: 0 n
  Increased aspartate aminotransferase, grade II, percent of subjects: 0%
  Increased aspartate aminotransferase, number of subjects (%): 1 (12.5) n (%)
  Increased bilirubin, cases: 0 case
  Increased bilirubin, grade I, number of subjects: 0 n
  Increased bilirubin, grade I, percent of subjects: 0%
  Increased bilirubin, number of subjects (%): 0 (0) n (%)
  Increased creatinine, cases: 1 case
  Increased creatinine, grade I, number of subjects: 1 n
  Increased creatinine, grade I, percent of subjects: 12.50%
  Increased creatinine, number of subjects (%): 1 (12.5) n (%)
  Increased γ-glutamyltransferase, cases: 0 case
  Increased γ-glutamyltransferase, grade I, number of subjects: 0 n
  Increased γ-glutamyltransferase, grade I, percent of subjects: 0%
  Increased γ-glutamyltransferase, number of subjects (%): 0 (0) n (%)
  Rash, cases: 0 case
  Rash, grade I, number of subjects: 0 n
  Rash, grade I, percent of subjects: 0%
  Rash, number of subjects (%): 0 (0) n (%)
  Total adverse reactions, cases: 6 case
  Total adverse reactions, number of subjects (%): 3 (37.5) n (%)
100 mg q.d.
  Adverse reactions, grade I, number of subjects: 4 n
  Adverse reactions, grade I, percent of subjects: 50.00%
  Adverse reactions, grade II, number of subjects: 1 n
  Adverse reactions, grade II, percent of subjects: 12.50%
  Adverse reactions, grade III, number of subjects: 0 n
  Adverse reactions, grade III, percent of subjects: 0%
  Adverse reactions, total (all grades), number of subjects: 5 n
  Adverse reactions, total (all grades), percent of subjects: 62.5%
  Decreased neutrophil count, cases: 1 case
  Decreased neutrophil count, grade II, percent of subjects: 12.50%
  Decreased neutrophil count, grade III, number of subjects: 0 n
  Decreased neutrophil count, grade III, percent of subjects: 0%
  Decreased neutrophil count, number of subjects (%): 1 (12.5) n (%)
  Decreased platelet count, cases: 1 case
  Decreased platelet count, grade I, number of subjects: 1 n
  Decreased platelet count, grade I, percent of subjects: 12.50%
  Decreased platelet count, number of subjects (%): 1 (12.5) n (%)
  Decreased serum phosphorus, cases: 0 case
  Decreased serum phosphorus, grade I, number of subjects: 0 n
  Decreased serum phosphorus, grade I, percent of subjects: 0%
  Decreased serum phosphorus, number of subjects (%): 0 (0) n (%)
  Decreased white blood cell count, cases: 1 case
  Decreased white blood cell count, grade II, percent of subjects: 12.50%
  Decreased white blood cell count, number of subjects (%): 1 (12.5) n (%)
  Hypertriglyceridemia, cases: 0 case
  Hypertriglyceridemia, grade III, number of subjects: 0 n
  Hypertriglyceridemia, grade III, percent of subjects: 0%
  Hypertriglyceridemia, number of subjects (%): 0 (0) n (%)
  Increased alanine aminotransferase, cases: 3 case
  Increased alanine aminotransferase, grade I, number of subjects: 3 n
  Increased alanine aminotransferase, grade I, percent of subjects: 37.50%
  Increased alanine aminotransferase, grade II, number of subjects: 0 n
  Increased alanine aminotransferase, grade II, percent of subjects: 0%
  Increased alanine aminotransferase, number of subjects (%): 3 (37.5) n (%)
